Laboratory results: patent US20170295788A1, “USE OF HETEROCYCLIC FLUOROALKENYL SULFONE COMPOUNDS FOR REPELLING MOLLUSCS” (Adama Makhteshim Ltd., priority 2014, published 2017)

System: Deroceras reticulatum
Test: Split box trial: slug damage to lettuce seedlings / slug repellency
Assay type: in vivo
Description: A split box trial was conducted using Deroceras reticulatum as the slug species and lettuce seedling as the food source. There were 5 split treatments with each treatment replicated four times using a simple randomized block design. Each plot was a single enclosed cage of dimensions 0.6 m×0.4 m. Each cage was of opaque plastic construction with rigid sides and a removable fine muslin top to prevent escape of the slugs. The cages were each filled with natural loam soil to a depth of approximately 7 cm, which was consolidated to prevent slug escape. Half of each box was covered with a polythene sheet before spraying to prevent the spray from reaching the soil on half of the box. […] Following the application of fluensulfone 250 CS, one treatment was incorporated into the soil by mixing the top 2 cm of the soil. The other applications had no soil incorporation. Lettuce plants were planted into the soil either seven or two days after spraying. At these intervals after spraying, six lettuce plants were planted into each cage, three in the treated side and three in the untreated side. After transplanting the lettuce plants, eight adult slugs were introduced into the centre of each cage. The soil was kept damp for the duration of the trials. [table] All sprayed treatments applied in 200 l/ha water. Assessments were carried out after the introduction of the slugs. Severity of leaf damage was assessed using a % scale where 0=no damage and 100=total loss of plant foliage. Incidence of plant damage was assessed by counting the actual number of plants showing damage.

O=S(=O)(CCC(F)=C(F)F)c1ncc(Cl)s1 [fluensulfone]
numbers of damaged lettuce plants (all fluensulfone treated boxes, compared to the untreated box): reduced compared to the untreated box
amount of damage caused to the lettuce plants (damage severity) (treated boxes compared to the untreated box): reduced
effect on live slugs (repellency) (treated boxes, slugs avoided the sprayed side and migrated to the untreated side): repellent effect
